Laboratory results from patent US6156789A, “Method for treating abnormal cell proliferation in the brain” (Rhone-Poulenc Rorer S.A., priority 1998, dated 2000).
Values joined by “and” are separate entries in the source; they are usually repeats but may differ in a detail not shown here. Equal values may be shown once. Read-outs that look alike come from different tables or passages of the source.

Experiments:
[1] = Plasma kinetics of Compound A after i.v. injection in mice (HPLC); type: in vivo, C3H/HeN female mice; conditions: for Cmax at 2 min: read-out: observed maximum plasma concentration
Procedure: (§1) Mammary C/16 adenocarcinomas were implanted in C3H/HeN female mice. At least 7 days later, 4α,10β-diacetoxy-2α-benzoyloxy-5β,20-epoxy-1β-hydroxy-7β,8β-methylene-9-oxo-19-nor-11-taxen-13α-yl (2R,3S)-3-tert-butoxycarbonylamino-2-hydroxy-3-phenylpropionate ("Compound A") was administered to groups of female mice at doses of 9.5, 15.4, 24.8, 40 or 60.5 mg/kg by intravenous injection under 0.4 or 0.5 ml/injection over 15 seconds. The body weight and date of implantation were recorded for each mouse. Blood and tissue samples were taken 2, 5, 15, 30 and 45 minutes and 1, 4, 14, 24 and 48 hours, after administration. The plasma was separated from the blood samples at 4° C. and frozen immediately. The tissue and tumors were weighed and frozen immediately (-20° C.).
(§2) The plasma and tissue samples were then analyzed for the concentration of Compound A. The plasma was assayed by high pressure liquid chromatography with spectrophotometric detection. For the tissue, liver, heart, kidney, lung, spleen and tumor tissue, samples were assayed by a first method, while a second method was used for the brain tissue analyzed. In the first method, 0.2 g of tissue was combined with 2 ml of sodium phosphate buffer 0.1 M (pH:7) and homogenized. The homogenate was centrifuged and 0.5 ml of supernatant was injected into the chromatographic column. In the second method, 10 μl of standard solution was combined with 0.2 g of brain tissue. 2 ml of methanol/5% perchloric acid (50/50) were added and the mixture was homogenized. The homogenate was centrifuged and 100 μl of supernatant was injected into the chromatographic column.

[2] = Brain distribution of Compound A in mice with mammary C/16 adenocarcinomas (second method, brain tissue); type: in vivo, C3H/HeN female mice
Procedure: as §1, §2

[3] = Highest non toxic dose in the mouse; conditions: in vivo, iv, read-out: highest non toxic dose (HNTD)
[4] = 0.03 h, 40 μg/kg [sic], single mice
[5] = 0.03 h, 40 μg/kg [sic], single mice, 40 mg/kg, 1.8 min
[6] = 0.08 h, 40 μg/kg [sic], single mice, MEAN=b257
[7] = 0.08 h, 40 μg/kg [sic], single mice, MEAN=b257, 40 mg/kg, 4.8 min
[8] = 0.25 h, 40 μg/kg [sic], single mice
[9] = 0.25 h, 40 μg/kg [sic], single mice, 40 mg/kg, 15 min
[10] = 0.50 h, 40 μg/kg [sic], single mice
[11] = 0.75 h, 40 μg/kg [sic], single mice, MEAN=b278
[12] = 1 h, 40 μg/kg [sic], single mice
[13] = 1 h, 40 μg/kg [sic], single mice, 40 mg/kg, 60 min
[14] = 4 h, 40 μg/kg [sic], single mice
[15] = 4 h, 40 μg/kg [sic], single mice, 40 mg/kg, 240 min
[16] = 14 h, 40 μg/kg [sic], single mice
[17] = 24 h, 40 μg/kg [sic], single mice
[18] = 24 h, 40 μg/kg [sic], single mice, 40 mg/kg, 1440 min
[19] = 48 h, 40 μg/kg [sic], single mice

CC(=O)O[C@H]1C(=O)[C@]23C[C@H]2C[C@H]2OC[C@@]2(OC(C)=O)[C@H]3[C@H](OC(=O)c2ccccc2)[C@]2(O)C[C@H](OC(=O)[C@H](O)[C@@H](NC(=O)OC(C)(C)C)c3ccccc3)C(C)=C1C2(C)C [Compound A, 4α,10β-diacetoxy-2α-benzoyloxy-5β,20-epoxy-1β-hydroxy-7β,8β-methylene-9-oxo-19-nor-11-taxen-13α-yl (2R,3S)-3-tert-butoxycarbonylamino-2-hydroxy-3-phenylpropionate]
kinetics in plasma and tumor tissue, linearity ([1]; 9.5 to 60.5 mg/kg i.v.): linear over the range studied | maximum plasma concentrations, dose linearity ([1]; 9.5 to 60.5 mg/kg i.v., 2 minutes): linear with respect to dose | Cmax at 2 min ([1]; mouse, plasma, iv, 9.5 mg/kg i.v., 2 minutes): 14000 ± 1000 ng/mL | Cmax at 2 min ([1]; mouse, plasma, iv, 15.4 mg/kg i.v., 2 minutes): 21000 ± 2000 ng/mL | Cmax at 2 min ([1]; mouse, plasma, iv, 24.8 mg/kg i.v., 2 minutes): 35000 ± 2000 ng/mL | Cmax at 2 min ([1]; mouse, plasma, iv, 40 mg/kg i.v., 2 minutes): 51000 ± 1000 ng/mL | Cmax at 2 min ([1]; mouse, plasma, iv, 60.5 mg/kg i.v., 2 minutes): 133000 ± 30000 ng/mL | AUC(0-t) at 4 h ([1]; mouse, plasma, iv, dose = 40 mg/kg): 35000 ng·h/mL | AUC(0-inf) ([1]; mouse, plasma, iv, dose = 40 mg/kg, read-out: AUC 0 to Infinity, Plasma): 58600 ng·h/mL | half-life ([1]; mouse, plasma, iv, dose = 40 mg/kg, read-out: t 1/2, Plasma (converted)): 4.4 h | brain and plasma AUCs at 4 hours compared ([2]; 40 mg/kg i.v.): similar | 0 to infinity AUC in brain tissue compared with plasma ([2]; 40 mg/kg i.v., mouse): ten times that observed for plasma | % of DOSE (brain) [2, 4]: 0.42% and 0.53% and 0.47% and 0.36% and 0.45% | AMOUNT In TISSUE (brain) [2, 4]: 4.21 µg and 5.17 µg and 4.34 µg and 3.55 µg and 4.32 µg | Brain CONC. [2, 5]: 11.32 µg/g and 9.51 µg/g and 7.64 µg/g and 9.57 µg/g | RATIO BRAIN/PLASMA [2, 5]: 0.22 and 0.15 | Percentage of Compound A (of dose) in Brain ([2]; 0.033 h, 40 mg/kg): 0.19% | % of DOSE (brain) [2, 6]: 0.60% and 0.49% and 0.58% and 0.56% | AMOUNT In TISSUE (brain) [2, 6]: 6.14 µg and 4.62 µg and 5.62 µg and 5.46 µg | Brain CONC. [2, 7]: 10.69 µg/g and 13.46 µg/g and 12.56 µg/g | RATIO BRAIN/PLASMA [2, 7]: 0.27 and 0.29 and 0.34 | % of DOSE (brain) [2, 8]: 0.58% and 0.52% and 0.67% and 0.66% and 0.61% | AMOUNT In TISSUE (brain) [2, 8]: 5.38 µg and 4.88 µg and 6.68 µg and 6.07 µg and 5.75 µg | Brain CONC. [2, 9]: 11.16 µg/g and 15.37 µg/g and 13.12 µg/g and 13.21 µg/g | RATIO BRAIN/PLASMA [2, 9]: 0.53 and 0.50 and 0.66 and 0.57 | % of DOSE (brain) [2, 10]: 0.53% and 0.45% and 0.42% and 0.39% | AMOUNT In TISSUE (brain) [2, 10]: 4.78 µg and 4.56 µg and 3.87 µg and 3.53 µg and 4.19 µg | RATIO BRAIN/PLASMA ([2]; 0.50 h, 40 μg/kg [sic], single mice, 40 mg/kg, 30 min): 0.69 and 0.75 | % of DOSE (brain) [2, 11]: 0.38% and 0.53% and 0.50% and 0.45% | AMOUNT In TISSUE (brain) [2, 11]: 3.32 µg and 4.99 µg and 4.49 µg and 3.92 µg and 4.18 µg | Brain CONC. ([2]; 0.75 h, 40 μg/kg [sic], single mice, MEAN=b278, 40 mg/kg, 45 min): 11.46 µg/g and 9.98 µg/g and 9.00 µg/g and 9.5 µg/g | % of DOSE (brain) [2, 12]: 0.54% and 0.34% and 0.33% and 0.43% and 0.41% | AMOUNT In TISSUE (brain) [2, 12]: 5.14 µg and 3.35 µg and 3.14 µg and 4.22 µg and 3.96 µg | Brain CONC. [2, 13]: 7.23 µg/g and 7.33 µg/g and 9.05 µg/g and 8.77 µg/g | RATIO BRAIN/PLASMA [2, 13]: 1.18 and 1.12 | Percentage of Compound A (of dose) in Brain ([2]; 1 h, 40 mg/kg): 0.41% | % of DOSE (brain) [2, 14]: 0.34% and 0.45% and 0.36% and 0.40% and 0.39% | AMOUNT In TISSUE (brain) [2, 14]: 3.27 µg and 4.27 µg and 3.40 µg and 3.67 µg and 3.65 µg | Brain CONC. [2, 15]: 10.24 µg/g and 7.88 µg/g and 8.38 µg/g and 8.47 µg/g | RATIO BRAIN/PLASMA [2, 15]: 2.46 and 2.7 and 2.71 | Percentage of Compound A (of dose) in Brain ([2]; 4 h, 40 mg/kg): 0.39% | % of DOSE (brain) [2, 16]: 0.40% and 0.44% and 0.28% and 0.38% | AMOUNT In TISSUE (brain) [2, 16]: 3.73 µg and 4.06 µg and 2.46 µg and 3.65 µg and 3.48 µg | Brain CONC. ([2]; 14 h, 40 μg/kg [sic], single mice, 40 mg/kg, 840 min): 8.77 µg/g and 5.77 µg/g and 8.23 µg/g and 7.84 µg/g | % of DOSE (brain) [2, 17]: 0.39% and 0.29% and 0.33% | AMOUNT In TISSUE (brain) [2, 17]: 3.78 µg and 2.58 µg and 2.79 µg and 3.08 µg and 3.06 µg | Brain CONC. [2, 18]: 6.00 µg/g and 6.20 µg/g and 7.03 µg/g and 6.95 µg/g | RATIO BRAIN/PLASMA [2, 18]: 20.67 and 20.68 | Percentage of Compound A (of dose) in Brain ([2]; 24 h, 40 mg/kg): 0.33% | % of DOSE (brain) [2, 19]: 0.15% and 0.21% and 0.20% and 0.19% | AMOUNT In TISSUE (brain) [2, 19]: 1.55 µg and 2.02 µg and 2.13 µg and 1.97 µg and 1.92 µg | Brain CONC. ([2]; 48 h, 40 μg/kg [sic], single mice, 40 mg/kg, 2880 min): 4.54 µg/g and 4.77 µg/g and 4.48 µg/g and 4.37 µg/g | Percentage of Compound A (of dose) in Brain ([2]; 48 h, 40 mg/kg): 0.19% | AUC 0-4 Hours, Brain ([2]; dose = 40 mg/kg): 36.3 µg·h/g | AUC 0 to Infinity, Brain ([2]; dose = 40 mg/kg): 627 µg·h/g | t 1/2, Brain ([2]; dose = 40 mg/kg): 47.6 h | half-life ([2]; mouse, brain, iv, 40 mg/kg, 40 mg/kg i.v., read-out: half-life of the distribution phase, brain (converted)): 0.07 h | concentration at 0.03 h ([2]; mouse, brain, iv, 40 mg/kg, 0.03 h, 40 μg/kg [sic], single mice, read-out: Brain CONC.): 9800 ng/g | concentration at 0.08 h ([2]; mouse, brain, iv, 40 mg/kg, 0.08 h, 40 μg/kg [sic], single mice, MEAN=b257, read-out: Brain CONC.): 13500 ng/g | concentration at 0.25 h ([2]; mouse, brain, iv, 40 mg/kg, 0.25 h, 40 μg/kg [sic], single mice, read-out: Brain CONC.): 13200 ng/g | concentration at 0.5 h ([2]; mouse, brain, iv, 40 mg/kg, 0.50 h, 40 μg/kg [sic], single mice, read-out: Brain CONC.): 11200 ng/g | concentration at 0.75 h ([2]; mouse, brain, iv, 40 mg/kg, 0.75 h, 40 μg/kg [sic], single mice, MEAN=b278, read-out: Brain CONC.): 7540 ng/g | concentration at 1 h ([2]; mouse, brain, iv, 40 mg/kg, 1 h, 40 μg/kg [sic], single mice, read-out: Brain CONC.): 11500 ng/g | concentration at 4 h ([2]; mouse, brain, iv, 40 mg/kg, 4 h, 40 μg/kg [sic], single mice, read-out: Brain CONC.): 7390 ng/g | concentration at 14 h ([2]; mouse, brain, iv, 40 mg/kg, 14 h, 40 μg/kg [sic], single mice, read-out: Brain CONC.): 8570 ng/g | concentration at 24 h ([2]; mouse, brain, iv, 40 mg/kg, 24 h, 40 μg/kg [sic], single mice, read-out: Brain CONC.): 8580 ng/g | concentration at 48 h ([2]; mouse, brain, iv, 40 mg/kg, 48 h, 40 μg/kg [sic], single mice, read-out: Brain CONC.): 3670 ng/g | half-life ([2]; mouse, brain, iv, 40 mg/kg, read-out: t 1/2, Brain (converted)): 47.6 h | Tmax ([2]; mouse, brain, iv, 40 mg/kg i.v., read-out: time of maximum concentration, brain): 0.25 h | Kp at 0.03 h ([2]; mouse, brain/plasma, iv, 40 mg/kg, 0.03 h, 40 μg/kg [sic], single mice, read-out: RATIO BRAIN/PLASMA): 0.2 | Kp at 0.08 h ([2]; mouse, brain/plasma, iv, 40 mg/kg, 0.08 h, 40 μg/kg [sic], single mice, MEAN=b257, read-out: RATIO BRAIN/PLASMA): 0.47 | Kp at 0.25 h ([2]; mouse, brain/plasma, iv, 40 mg/kg, 0.25 h, 40 μg/kg [sic], single mice, read-out: RATIO BRAIN/PLASMA): 0.6 | Kp at 0.5 h ([2]; mouse, brain/plasma, iv, 40 mg/kg, 0.50 h, 40 μg/kg [sic], single mice, read-out: RATIO BRAIN/PLASMA): 0.93 | Kp at 1 h ([2]; mouse, brain/plasma, iv, 40 mg/kg, 1 h, 40 μg/kg [sic], single mice, read-out: RATIO BRAIN/PLASMA): 1.42 | Kp at 4 h ([2]; mouse, brain/plasma, iv, 40 mg/kg, 4 h, 40 μg/kg [sic], single mice, read-out: RATIO BRAIN/PLASMA): 2.84 | Kp at 24 h ([2]; mouse, brain/plasma, iv, 40 mg/kg, 24 h, 40 μg/kg [sic], single mice, read-out: RATIO BRAIN/PLASMA): 20.7 | MTD [3]: 40 mg/kg
